This is an account of results in PubChem BioAssay AID1189 (EPA DSSTox, 2008).

Structures are written as SMILES. Activity calls are given as the source filed them.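 How the source made its calls: active means a tumor-causing dose value with its tumor site reported for any sex and species group of a rodent or other animal cancer study; inconclusive means only studies judged inadequate by the national testing program; inactive means tested in at least one study, none positive.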

The nature of this data set: DSSTox (CPDBAS) Carcinogenic Potency Database Summary SingleCellCall Results. Particulars: animal chronic carcinogenicity bioassays, CPDB summary call. The essentials: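 Categorical carcinogenicity call compiled from published chronic rodent and other animal cancer bioassays; based on the most positive result across experiments for each sex-species, assigned on minimal evidence for or against activity.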
`CC(C)(CCCOc1ccc(OCCCC(C)(C)C(=O)O)c(-c2ccccc2)c1)C(=O)O`: the outcome was active.

Consider `N=c1ccn2c(n1)O[C@H]1[C@H](O)[C@@H](CO)O[C@H]12`, for which the outcome was inactive.

As for `Nc1ccc(S(=O)(=O)c2ccc(N)cc2)cc1`, the outcome was active.

As to `C=C(C)C#N`, the outcome was inactive.

For `CN(N=O)c1ccc(/C=C/c2ccnc3ccccc23)cc1`, the outcome was active.

Turning to `NC(=O)CCCCn1ccc(NC(N)=NCC(F)(F)F)n1`, the outcome is “active; inactive”.

`Nc1ccc([N+](=O)[O-])cc1N`: the outcome was “inactive; active”.

Turning to `C/C=C(\C)C(=O)O[C@@H]1CCN2CC=C(COC(=O)C(O)(C(C)C)C(C)O)[C@H]12` (some centres not stated), the outcome was active.

With `CN(C)C(=S)[S-].CN(C)C(=S)[S-].[Cu+2]`, the outcome was inactive.

Regarding `CCOc1nc2cccc(C(=O)OC(C)OC(=O)OC3CCCCC3)c2n1Cc1ccc(-c2ccccc2-c2nn[nH]n2)cc1` (configuration not stated), the result was inactive.

`C=CCc1ccc(OC)c(OC)c1`: the outcome was “active; inactive”.

As to `CN(N=O)c1ccccn1`, the outcome was active.

In the case of `NC(=O)N/N=C/c1ccco1`, the result was inactive.

In the case of `Cc1c(-c2cnccn2)ssc1=S`, the outcome was “inactive; active”.

`CCCCN(N)C=O`: the result was active.

Turning to `N`, the outcome was inactive.

As to `Nc1nnc(-c2ccc([N+](=O)[O-])o2)s1`, the result was active.

For the compound `NC(=O)c1cccnc1`, the outcome was inactive.

`CC(O)CN(CCO)N=O` (configuration not stated): the outcome was active.

Regarding `CCOP(=S)(OCC)Oc1ccc([N+](=O)[O-])cc1`, the outcome was “inactive; active”.

Consider `c1ccc(Nc2ccc(Nc3ccccc3)cc2)cc1`, for which the outcome was inactive.

On to `CC(C)=NO`, for which the result was active.

For `O=S(=O)(O)c1ccc(N=Nc2cc(S(=O)(=O)O)c3ccccc3c2O)c2ccccc12`, the outcome was “inactive; active”.

Turning to `NC(=O)OCC(COC(N)=O)c1ccccc1`, the outcome is “active; inactive”.

As for `S=C=NCCCc1ccccc1`, the outcome was inactive.

Turning to `O=[N+]([O-])c1ccc2ccc3cccc4ccc1c2c34`, the outcome was active.

In the case of `CC(Cc1ccccc1)NN` (configuration not stated), the outcome was inactive.

In the case of `O=C1C(Cl)=C(Cl)C(=O)C(Cl)=C1Cl`, the outcome was inactive.

Consider `CCCCN(CCCCO)N=O`, for which the outcome is “active; inactive”.

On to `CC/C(=C(/CC)c1ccc(O)cc1)c1ccc(O)cc1`, for which the outcome was active.

For `C/C=C1/C[C@@H](C)[C@](O)(CO)C(=O)OCC2=CC[N+]3([O-])CC[C@@H](OC1=O)[C@@H]23` (some centres not stated), the result was active.

For the compound `CN(C)CCOc1ccc(/C(=C(/CCCl)c2ccccc2)c2ccccc2)cc1`, the outcome was inactive.

For the compound `Cl`, the outcome was inactive.

Regarding `C[N+](C)(C)CCO`, the result was inactive.

As for `S=P(N1CC1)(N1CC1)N1CC1`, the outcome was active.

Regarding `CC(O)CO` (configuration not stated), the result was inactive.

In the case of `O=[N+]([O-])c1ccc2ncccc2c1`, the outcome was “inactive; active”.

As to `Cn1nc(CO)nc1NCCCOc1cccc(CN2CCCCC2)c1`, the outcome was active.

For `Cc1ccc([N+](=O)[O-])cc1N`, the outcome was active.

As to `NNc1nc(-c2ccc(N)cc2)cs1`, the outcome was active.

In the case of `ClC(Cl)Cl`, the outcome was active.

Regarding `CCN(N=O)C(=O)NCC(C)=O`, the result was active.

For `C#CC(OC(N)=O)(c1ccccc1)c1ccc(Cl)cc1` (configuration not stated), the outcome was “active; inactive”.

Turning to `CN(C)CCOC(c1ccccc1)c1ccccc1`, the result was inactive.

Take `C=CCOCC1CO1` (configuration not stated): the result was active.

In the case of `CC(C)CON=O`, the outcome was active.

`CCCCCC(N)=O`: the result was active.
